Results published in US20170354629A1, “Method And Compositions For Treating Skin” (ELC Management LLC, priority 2011, published 2017).

Tests used:
[1] = tested on: per1 gene expression in skin cells; test: observation of per1 gene expression in skin cells (no method given); assay type: cell-based; conditions: component commonly found in extracts of Echinacea
per1 gene expression = per1 gene expression luciferase reporter assay in keratinocytes; assay type: cell-based; conditions: normal human epidermal keratinocytes (NHEK) transfected with pGL4.11 per1/luciferase plasmid; 16 hours incubation with test material; values only in FIGS. 1 and 2
Experimental: Cichoric acid and […] purpurea extract ([…]) were tested to determine per1 gene expression. Normal human epidermal keratinocytes (NHEK) were diluted in […] with supplement S001-5 added (Gibco, Cascade Biologics, Invitrogen) to form a concentration of 3×10^4 and plated onto a black walled 96 well microtiter plate by adding 100 μl in each well. The plate was incubated for 3 hours at 37° C. in 5% CO2. The media was removed and remaining adhered cells rinsed with […], supplement free. A plasmid solution was prepared by diluting Tris-EDTA pH 8.0 buffer with plasmid pGL4.11 (DNA 2.0, Carlsbad, Calif.) to form a 1 mg/ml solution. This plasmid contained a per1 gene sequence and a luciferase reporter gene sequence. A transfection mixture was prepared by diluting […], supplement free, to form a solution with 0.31 μg/ml of plasmid (obtained by adding appropriate amount of plasmid solution prepared above), 1.28% PlusTM Reagent (Catalog No. 11514-015, Invitrogen, Carlsbad, Calif.), and 3.22% LipofectamineTM Transfection Reagent (Catalog No. 18324-012, Invitrogen, Carlsbad, Calif.). […] Immediately prior to reading, Bright-GloTM (Pro-Mega, Madison Wis.) was added to each well plate in the same volume as is currently in the well (e.g. a 1:1 dilution). Luminescence was measured in an LMaxTM Microplate Luminometer (Molecular Devices, Sunnyvale, Calif.).

Compound | per1 gene expression in skin cells [1] | per1 gene expression (luminescence of per1-luciferase reporter) (per1 gene expression)
O=C(/C=C/c1ccc(O)c(O)c1)O[C@@H](C(=O)O)[C@@H](O)C(=O)O [caftaric acid] | does not increase per1 gene expression | 
O=C(/C=C/c1ccc(O)c(O)c1)O[C@@H](C(=O)O)[C@@H](OC(=O)/C=C/c1ccc(O)c(O)c1)C(=O)O [cichoric acid] |  | stimulate per1 gene expression
